# Experimental data published in patent US10004701B2, “Methods and compositions for treating infection” (UNIVERSITY OF ROCHESTER, priority 2012, dated 2018).
# Read-outs that look alike come from different tables or passages of the source.
# How the values were obtained:
# [1] = system: S. aureus; assay: Minimum Inhibitory Concentration (MIC) testing, terfenadine study; format: cell-based; conditions: Staphylococcus aureus, 16 h
# [2] = target: T1, S. aureus DNA gyrase (Staphylococcus aureus, UniProt P0A0K8+P20831); assay: S. aureus DNA gyrase supercoiling assay (TopoGEN); format: biochemical
# T1 construct: purchased TopoGEN
# T1 sequence (P0A0K8 whole entry): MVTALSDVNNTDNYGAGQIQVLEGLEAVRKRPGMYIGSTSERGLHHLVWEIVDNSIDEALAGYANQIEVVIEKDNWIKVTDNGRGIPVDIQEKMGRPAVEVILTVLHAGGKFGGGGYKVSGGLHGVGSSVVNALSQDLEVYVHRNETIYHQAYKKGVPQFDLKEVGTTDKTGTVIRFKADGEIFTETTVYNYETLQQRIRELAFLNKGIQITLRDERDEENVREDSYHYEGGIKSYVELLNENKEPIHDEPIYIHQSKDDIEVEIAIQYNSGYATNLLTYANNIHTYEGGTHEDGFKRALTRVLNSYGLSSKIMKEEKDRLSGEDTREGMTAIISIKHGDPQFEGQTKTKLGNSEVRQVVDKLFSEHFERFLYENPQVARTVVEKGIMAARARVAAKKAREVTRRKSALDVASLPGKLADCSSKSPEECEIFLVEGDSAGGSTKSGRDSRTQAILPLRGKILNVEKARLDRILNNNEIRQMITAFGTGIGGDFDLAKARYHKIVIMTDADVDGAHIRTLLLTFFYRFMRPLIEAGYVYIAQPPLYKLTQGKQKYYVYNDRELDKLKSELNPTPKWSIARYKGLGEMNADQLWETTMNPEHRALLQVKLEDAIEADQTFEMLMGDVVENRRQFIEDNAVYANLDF
# T1 sequence (P20831 whole entry): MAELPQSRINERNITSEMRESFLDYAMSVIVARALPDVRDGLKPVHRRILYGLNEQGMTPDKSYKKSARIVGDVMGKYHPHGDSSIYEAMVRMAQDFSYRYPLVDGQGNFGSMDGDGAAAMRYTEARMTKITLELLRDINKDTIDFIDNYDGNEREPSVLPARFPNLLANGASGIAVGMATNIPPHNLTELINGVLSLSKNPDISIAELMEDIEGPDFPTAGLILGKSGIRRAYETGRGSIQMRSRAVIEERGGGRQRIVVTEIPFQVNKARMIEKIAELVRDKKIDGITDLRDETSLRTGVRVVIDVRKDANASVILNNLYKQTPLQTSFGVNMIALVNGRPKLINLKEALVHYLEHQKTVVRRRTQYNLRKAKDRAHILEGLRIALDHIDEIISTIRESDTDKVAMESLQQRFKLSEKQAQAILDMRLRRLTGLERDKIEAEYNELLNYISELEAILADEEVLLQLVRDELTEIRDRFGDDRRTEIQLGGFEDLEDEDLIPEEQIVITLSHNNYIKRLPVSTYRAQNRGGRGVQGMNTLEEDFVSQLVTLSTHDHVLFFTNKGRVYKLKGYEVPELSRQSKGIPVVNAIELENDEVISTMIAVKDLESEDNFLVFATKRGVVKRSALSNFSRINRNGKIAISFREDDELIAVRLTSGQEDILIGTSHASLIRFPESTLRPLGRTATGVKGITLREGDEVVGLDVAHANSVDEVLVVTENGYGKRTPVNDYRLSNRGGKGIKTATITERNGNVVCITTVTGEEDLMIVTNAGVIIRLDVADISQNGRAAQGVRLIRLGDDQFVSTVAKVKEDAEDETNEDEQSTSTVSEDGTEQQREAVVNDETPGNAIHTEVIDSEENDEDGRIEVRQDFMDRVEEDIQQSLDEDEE
# Procedure: Reactions were incubated at 37° C. for 30 min and then stopped by the addition of 10% SDS, filtered through 0.025 μm Millipore membrane filters in a 10 mM Tris-HCl buffer (pH 8), and electrophoresed in a 1% agarose TAE gel. Gels were stained with 0.5 μg/ml ethidium bromide and images were analyzed using densitometry (Image J, NIH).
# [3] = system: S. aureus strain USA300-0114; assay: AK assay 384-well format, Prestwick library screening; format: cell-based, Staphylococcus aureus; conditions: 50 μM final drug concentration
# [4] = system: K. pneumoniae; assay: as above; format: cell-based, Klebsiella pneumoniae; conditions: 50 μM final drug concentration
# [5] = system: E. cloacae; assay: as above; format: cell-based, Enterobacter cloacae; conditions: 50 μM final drug concentration
# [6] = system: A. baumannii strain 98-37-09; assay: as above; format: cell-based, Acinetobacter baumannii; conditions: 50 μM final drug concentration
# [7] = system: P. aeruginosa; assay: as above; format: cell-based, Pseudomonas aeruginosa; conditions: 50 μM final drug concentration
# [8] = system: E. coli; assay: as above; format: cell-based, Escherichia coli; conditions: 50 μM final drug concentration
# [9] = system: E. faecium; assay: as above; format: cell-based, Enterococcus faecium; conditions: 50 μM final drug concentration
# [10] = S. aureus, MHB, strain not given, read-out: MIC
# [11] = cutoff for positive-scoring molecules 3-fold increase
# [12] = planktonic, cutoff for positive-scoring molecules 3-fold increase
# [13] = planktonic S. aureus, positive cutoff 3-fold increase
# [14] = planktonic K. pneumoniae, positive cutoff 3-fold increase
# [15] = planktonic E. cloacae, positive cutoff 3-fold increase
# [16] = planktonic A. baumannii, positive cutoff 3-fold increase
# [17] = planktonic P. aeruginosa, positive cutoff 3-fold increase
# [18] = planktonic E. coli, positive cutoff 3-fold increase
# [19] = planktonic E. faecium, positive cutoff 3-fold increase
molecule,measurement,setting,value
"CC(C)(C)c1ccc(C(O)CCCN2CCC(C(O)c3ccccc3)CC2)cc1 (mixture of isomers) [Compound 31, 1-(4-(tert-butyl)phenyl)-4-(4-(hydroxy(phenyl)methyl)piperidin-1-yl)butan-1-ol]",MIC,[1],128 µg/mL
"CC(C)c1ccc(C(O)CCCN2CCC(C(O)(c3ccccc3)c3ccccc3)CC2)cc1 (centres unmarked) [Compound 1, 4-(4-(hydroxydiphenylmethyl)piperidin-1-yl)-1-(4-isopropylphenyl)butan-1-ol]",MIC,[1]; [10],16 µg/mL
"CC(C)(C)c1ccc(C(O)CCCCN2CCC(C(O)(c3ccccc3)c3ccccc3)CC2)cc1 (centres unmarked) [Compound 2, 1-(4-(tert-butyl)phenyl)-5-(4-(hydroxydiphenylmethyl)piperidin-1-yl)pentan-1-ol]",IC50,[2],206 µM
same,MIC,[1],16 µg/mL
"OC(CCCN1CCC(C(O)(c2ccccc2)c2ccccc2)CC1)c1ccc(Cl)cc1 (centres unmarked) [Compound 4, 1-(4-chlorophenyl)-4-(4-(hydroxydiphenylmethyl)piperidin-1-yl)butan-1-ol]",IC50,[2],296 µM
same,MIC,[1],64 µg/mL
"OC(CCCN1CCC(C(O)(c2ccccc2)c2ccccc2)CC1)c1ccccc1 (centres unmarked) [Compound 6, 4-(4-(hydroxydiphenylmethyl)piperidin-1-yl)-1-phenylbutan-1-ol]",IC50,[2],> 1200 µM
same,MIC,[1],256 µg/mL
"COc1ccc(C(O)CCCN2CCC(C(O)(c3ccccc3)c3ccccc3)CC2)cc1 (centres unmarked) [Compound 7, 4-(4-(hydroxydiphenylmethyl)piperidin-1-yl)-1-(4-methoxyphenyl)butan-1-ol]",IC50,[2],> 1120 µM
same,MIC,[1],256 µg/mL
"OC(CCCN1CCC(C(O)(c2ccccc2)c2ccccc2)CC1)c1ccc(F)cc1 (centres unmarked) [Compound 8, 1-(4-fluorophenyl)-4-(4-(hydroxydiphenylmethyl)piperidin-1-yl)butan-1-ol]",IC50,[2],> 1150 µM
same,MIC,[1],128 µg/mL
"CC(C)(C)c1ccc(C(=O)CCCN2CCC(C(O)(c3ccccc3)c3ccccc3)CC2)cc1 [Compound 11, 1-(4-(tert-butyl)phenyl)-4-(4-(hydroxydiphenylmethyl)piperidin-1-yl)butan-1-one]",MIC,[1],8 µg/mL
"CC(C)(C)c1ccc(C(O)CN2CCC(C(O)(c3ccccc3)c3ccccc3)CC2)cc1 (centres unmarked) [Compound 17, 1-(4-(tert-butyl)phenyl)-2-(4-(hydroxydiphenylmethyl)piperidin-1-yl)ethanol]",MIC,[1]; [10],16 µg/mL
"CC(C)(C)c1ccc(C(=O)CN2CCC(C(O)(c3ccccc3)c3ccccc3)CC2)cc1 [Compound 20, 1-(4-(tert-butyl)phenyl)-2-(4-(hydroxydiphenylmethyl)piperidin-1-yl)ethanone]",MIC,[1],> 256 µg/mL
"CC(C)(C)c1ccc(C(N)CCCN2CCC(C(O)(c3ccccc3)c3ccccc3)CC2)cc1 (centres unmarked) [Compound 24, (1-(4-amino-4-(4-(tert-butyl)phenyl)butyl)piperidin-4-yl)diphenylmethanol]",MIC,[1],16 µg/mL
"CC(C)(C)c1ccc(CN2CCC(C(O)(c3ccccc3)c3ccccc3)CC2)cc1 [Compound 26, (1-(4-(tert-butyl)benzyl)piperidin-4-yl)diphenylmethanol]",IC50,[2],218 µM
"CC(C)(C)c1ccc(OCCCN2CCC(C(O)(c3ccccc3)c3ccccc3)CC2)cc1 [Compound 42, (1-(3-(4-(Tert-butyl)phenoxy)propyl)piperidin-4-yl)diphenylmethanol]",IC50,[2],219 µM
Thioproperazine dimesylate,AK-based Prestwick Library Screening Results: S. aureus (increase in extracellular AK activity),"[3]; planktonic S. aureus, 384-well, cutoff for positive-scoring molecules 3-fold increase",1.0
same,AK-based Prestwick Library Screening Results: K. pneumoniae (increase in extracellular AK activity),"[4]; planktonic K. pneumoniae, 384-well, cutoff for positive-scoring molecules 3-fold increase",1.1
same,AK-based Prestwick Library Screening Results: E. cloacae (increase in extracellular AK activity),"[5]; planktonic E. cloacae, 384-well, cutoff for positive-scoring molecules 3-fold increase",1.3
same,AK-based Prestwick Library Screening Results: A. baumannii (increase in extracellular AK activity),"[6]; planktonic A. baumannii, 384-well, cutoff for positive-scoring molecules 3-fold increase",1.7
same,AK-based Prestwick Library Screening Results: P. aeruginosa (increase in extracellular AK activity),"[7]; planktonic P. aeruginosa, 384-well, cutoff for positive-scoring molecules 3-fold increase",1.1
same,AK-based Prestwick Library Screening Results: E. coli (increase in extracellular AK activity),"[8]; planktonic E. coli, 384-well, cutoff for positive-scoring molecules 3-fold increase",1.5
same,AK-based Prestwick Library Screening Results: E. faecium (increase in extracellular AK activity),"[9]; planktonic E. faecium, 384-well, cutoff for positive-scoring molecules 3-fold increase",1.0
Timolol maleate salt,"AK-based Prestwick Library Screening Results, S. aureus (fold increase in extracellular AK activity)",[3]; [11],1.3
same,"AK-based Prestwick Library Screening Results, K. pneumoniae (fold increase in extracellular AK activity)",[4]; [11],1.1
same,"AK-based Prestwick Library Screening Results, E. cloacae (fold increase in extracellular AK activity)",[5]; [11],1.4
same,"AK-based Prestwick Library Screening Results, A. baumannii (fold increase in extracellular AK activity)",[6]; [11],1.5
same,"AK-based Prestwick Library Screening Results, P. aeruginosa (fold increase in extracellular AK activity)",[7]; [11],1.1
same,"AK-based Prestwick Library Screening Results, E. coli (fold increase in extracellular AK activity)",[8]; [11],1.3
same,"AK-based Prestwick Library Screening Results, E. faecium (fold increase in extracellular AK activity)",[9]; [11],1.0
Trimeprazine tartrate,"AK-based Prestwick Library Screening Results, S. aureus (fold increase in extracellular AK activity)",[3]; [11],1.1
same,"AK-based Prestwick Library Screening Results, K. pneumoniae (fold increase in extracellular AK activity)",[4]; [11],0.9
same,"AK-based Prestwick Library Screening Results, E. cloacae (fold increase in extracellular AK activity)",[5]; [11],1.5
same,"AK-based Prestwick Library Screening Results, A. baumannii (fold increase in extracellular AK activity)",[6]; [11],1.1
same,"AK-based Prestwick Library Screening Results, P. aeruginosa (fold increase in extracellular AK activity)",[7]; [11],1.2
same,"AK-based Prestwick Library Screening Results, E. coli (fold increase in extracellular AK activity)",[8]; [11],1.2
same,"AK-based Prestwick Library Screening Results, E. faecium (fold increase in extracellular AK activity)",[9]; [11],1.0
Trimipramine maleate salt,"AK-based Prestwick Library Screening Results, S. aureus (fold increase in extracellular AK activity)",[3]; [12],0.5
same,"AK-based Prestwick Library Screening Results, K. pneumoniae (fold increase in extracellular AK activity)",[4]; [12],0.6
same,"AK-based Prestwick Library Screening Results, E. cloacae (fold increase in extracellular AK activity)",[5]; [12],0.6
same,"AK-based Prestwick Library Screening Results, A. baumannii (fold increase in extracellular AK activity)",[6]; [12],0.6
same,"AK-based Prestwick Library Screening Results, P. aeruginosa (fold increase in extracellular AK activity)",[7]; [12],0.6
same,"AK-based Prestwick Library Screening Results, E. coli (fold increase in extracellular AK activity)",[8]; [12],0.6
same,"AK-based Prestwick Library Screening Results, E. faecium (fold increase in extracellular AK activity)",[9]; [12],0.9
Tyloxapol,"AK-based Prestwick Library Screening Results, S. aureus (fold increase in extracellular AK activity)",[3]; [11],1.4
same,"AK-based Prestwick Library Screening Results, K. pneumoniae (fold increase in extracellular AK activity)",[4]; [11],1.5
same,"AK-based Prestwick Library Screening Results, E. cloacae (fold increase in extracellular AK activity)",[5]; [11],1.2
same,"AK-based Prestwick Library Screening Results, A. baumannii (fold increase in extracellular AK activity)",[6]; [11],1.3
same,"AK-based Prestwick Library Screening Results, P. aeruginosa (fold increase in extracellular AK activity)",[7]; [11],1.2
same,"AK-based Prestwick Library Screening Results, E. coli (fold increase in extracellular AK activity)",[8]; […],1.4
same,"AK-based Prestwick Library Screening Results, E. faecium (fold increase in extracellular AK activity)",[9]; [11],1.0
Verteporfin,"AK-based Prestwick library screening result, S. aureus (fold increase in extracellular AK activity)",[3]; [13],0.5
same,"AK-based Prestwick library screening result, K. pneumoniae (fold increase in extracellular AK activity)",[4]; [14],0.8
same,"AK-based Prestwick library screening result, E. cloacae (fold increase in extracellular AK activity)",[5]; [15],1.6
same,"AK-based Prestwick library screening result, A. baumannii (fold increase in extracellular AK activity)",[6]; [16],0.9
same,"AK-based Prestwick library screening result, P. aeruginosa (fold increase in extracellular AK activity)",[7]; [17],0.8
same,"AK-based Prestwick library screening result, E. coli (fold increase in extracellular AK activity)",[8]; [18],0.7
same,"AK-based Prestwick library screening result, E. faecium (fold increase in extracellular AK activity)",[9]; [19],1.2
Viomycin sulfate,"AK-based Prestwick library screening result, S. aureus (fold increase in extracellular AK activity)","[3]; planktonic S. aureus, […]",1.3
same,"AK-based Prestwick library screening result, K. pneumoniae (fold increase in extracellular AK activity)","[4]; planktonic K. pneumoniae, […]",0.9
same,"AK-based Prestwick library screening result, E. cloacae (fold increase in extracellular AK activity)","[5]; planktonic E. cloacae, […]",1.6
same,"AK-based Prestwick library screening result, A. baumannii (fold increase in extracellular AK activity)","[6]; planktonic A. baumannii, […]",1.1
same,"AK-based Prestwick library screening result, P. aeruginosa (fold increase in extracellular AK activity)","[7]; planktonic P. aeruginosa, […]",0.9
same,"AK-based Prestwick library screening result, E. coli (fold increase in extracellular AK activity)","[8]; planktonic E. coli, […]",1.0
same,"AK-based Prestwick library screening result, E. faecium (fold increase in extracellular AK activity)","[9]; planktonic E. faecium, […]",1.0
Vitamin K2,"AK-based Prestwick library screening result, S. aureus (fold increase in extracellular AK activity)",[3]; [13],1.8
same,"AK-based Prestwick library screening result, K. pneumoniae (fold increase in extracellular AK activity)",[4]; [14],0.8
same,"AK-based Prestwick library screening result, E. cloacae (fold increase in extracellular AK activity)",[5]; [15],1.6
same,"AK-based Prestwick library screening result, A. baumannii (fold increase in extracellular AK activity)",[6]; [16],1.1
same,"AK-based Prestwick library screening result, P. aeruginosa (fold increase in extracellular AK activity)",[7]; [17],1.1
same,"AK-based Prestwick library screening result, E. coli (fold increase in extracellular AK activity)",[8]; [18],0.9
same,"AK-based Prestwick library screening result, E. faecium (fold increase in extracellular AK activity)",[9]; [19],1.0
